The source made the active and inactive calls. The calls are words filed in the database; no cut-off is given here.
What was measured:
P2Y purinoceptor 6 [1] = target: T1, P2Y purinoceptor 6 (Homo sapiens, UniProt Q15077); assay: Agonist activity at human P2Y6 receptor expressed in human 1321N1 cells coexpressing phospholipase C-activating Gq protein assessed as [3H]inositol phosphate production at 10 uM; type: functional, cell-based
P2Y purinoceptor 14 = target: T2, P2Y purinoceptor 14 (Homo sapiens, UniProt Q15391); assay: Agonist activity at human P2Y14 receptor expressed in HEK293 cells coexpressing phospholipase C-activating Gi protein cells assessed as inhibition of forskolin induced [3H]cAMP production; type: functional, cell-based
T2 sequence (Q15391 whole entry): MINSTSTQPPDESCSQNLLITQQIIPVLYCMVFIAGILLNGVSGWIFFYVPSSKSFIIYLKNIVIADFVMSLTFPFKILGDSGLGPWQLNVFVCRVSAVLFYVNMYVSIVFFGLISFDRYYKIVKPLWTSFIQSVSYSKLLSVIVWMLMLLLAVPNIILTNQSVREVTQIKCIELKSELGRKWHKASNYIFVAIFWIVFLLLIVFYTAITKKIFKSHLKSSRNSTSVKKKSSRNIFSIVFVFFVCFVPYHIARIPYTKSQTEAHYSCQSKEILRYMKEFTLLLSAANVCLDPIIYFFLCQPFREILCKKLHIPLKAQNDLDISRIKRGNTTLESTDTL

P2Y purinoceptor 6 [2] = target: T1, P2Y purinoceptor 6; assay: Agonist activity at human P2Y6 receptor expressed in human 1321N1 cells coexpressing phospholipase C-activating Gq protein assessed as [3H]inositol phosphate production; type: functional, cell-based
Homo sapiens = organism: Homo sapiens; assay: Selectivity, ratio of EC50 for human P2Y6 receptor to EC50 for human P2Y14 receptor
[3] = target: T3, P2Y purinoceptor 14 (Homo sapiens) (UniProt Q15391); assay: Agonist activity at human P2Y14 receptor expressed in HEK293 cells coexpressing phospholipase C-activating Gi protein cells assessed as inhibition of forskolin induced [3H]cAMP production at 10 uM; type: functional, cell-based
T3 sequence (whole entry): T2 sequence (Q15391 whole entry)

T1 sequence (Q15077 whole entry): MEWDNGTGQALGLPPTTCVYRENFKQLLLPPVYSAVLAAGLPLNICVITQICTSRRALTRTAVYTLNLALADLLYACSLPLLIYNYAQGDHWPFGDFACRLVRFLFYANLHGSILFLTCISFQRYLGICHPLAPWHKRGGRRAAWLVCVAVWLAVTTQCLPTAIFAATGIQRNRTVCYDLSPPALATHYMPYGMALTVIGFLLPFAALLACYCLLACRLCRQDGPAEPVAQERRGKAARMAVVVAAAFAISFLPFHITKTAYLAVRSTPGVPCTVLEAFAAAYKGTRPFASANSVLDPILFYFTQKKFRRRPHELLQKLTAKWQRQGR

Row | Compound | EC50 (P2Y purinoceptor 6 [1]) [µM] | EC50 (P2Y purinoceptor 14; read-out: EC50) [µM] | EC50 (P2Y purinoceptor 6 [2]; read-out: EC50) [µM] | also measured
1 | C#CCCOP(=O)(O)OP(=O)(O)OC[C@H]1O[C@@H](n2ccc(=O)[nH]c2=S)[C@H](O)[C@@H]1O | > 10 | 0.011 | – | –
2 | CC(C)(C)OP(=O)(O)OP(=O)(O)OC[C@H]1O[C@@H](n2ccc(=O)[nH]c2=S)[C@H](O)[C@@H]1O | – | 0.032 | 2.04 | Ratio EC50 (Homo sapiens): 64
3 | O=c1[nH]c(=O)n([C@@H]2O[C@H](COP(=O)(O)C(F)(F)P(=O)(O)O)[C@@H](O)[C@H]2O)cc1I | – | 0.142 | 0.127 | –
4 | O=c1ccn([C@@H]2O[C@H](COP(=O)(O)OP(=O)(O)Oc3cccc(Cl)c3)[C@@H](O)[C@H]2O)c(=O)[nH]1 | – | 1.8 | 7.37 | –
5 | O=c1[nH]c(=S)ccn1[C@@H]1O[C@H](COP(=O)(O)OP(=O)(O)O[C@H]2O[C@H](CO)[C@@H](O)[C@H](O)[C@H]2O)[C@@H](O)[C@H]1O | > 10 | 0.011 | – | –
6 | O=c1ccn([C@@H]2O[C@H](COP(=O)(O)OP(=O)(O)OC(CO)CO)[C@@H](O)[C@H]2O)c(=O)[nH]1 | > 10 | 0.167 | – | Ratio EC50 (Homo sapiens): 59
7 | CO/N=c1/ccn([C@@H]2O[C@H](COP(=O)(O)OP(=O)(O)O)[C@@H](O)[C@H]2O)c(=O)[nH]1 | – | 3.32 | 0.07 | –
8 | O=c1ccn([C@@H]2O[C@H](COP(=O)(O)OP(=O)(O)O)[C@@H](O)[C@H]2O)c(=S)[nH]1 | – | 0.00192 | 0.447 | Ratio EC50 (Homo sapiens): 230
9 | CC(C)(C)OP(=O)(O)OP(=O)(O)OC[C@H]1O[C@@H](n2ccc(=O)[nH]c2=O)[C@H](O)[C@@H]1O | – | 0.252 | – | Ratio EC50 (Homo sapiens): 43
10 | O=c1ccn([C@@H]2O[C@H](COP(=O)(O)OP(=O)(O)OCC(O)CO)[C@@H](O)[C@H]2O)c(=O)[nH]1 (some centres not stated) | > 10 | 1.6 | – | –
11 | COP(=O)(O)OP(=O)(O)OC[C@H]1O[C@@H](n2ccc(=O)[nH]c2=S)[C@H](O)[C@@H]1O | > 10 | 0.056 | – | –
12 | O=c1ccn([C@@H]2O[C@H](COP(=O)(O)OP(=O)(O)Oc3ccccc3)[C@@H](O)[C@H]2O)c(=O)[nH]1 | – | 0.768 | 7.4 | –
13 | COc1ccc(OP(=O)(O)OP(=O)(O)OC[C@H]2O[C@@H](n3ccc(=O)[nH]c3=O)[C@H](O)[C@@H]2O)cc1 | > 10 | 1.9 | – | –
14 | O=c1[nH]c(=S)ccn1[C@@H]1O[C@H](COP(=O)(O)OP(=O)(O)O)[C@@H](O)[C@H]1O | – | 0.32 | 2.36 | –
15 | O=c1ccn([C@@H]2O[C@H](COP(=O)(O)OP(=O)(O)O)[C@@H](O)[C@H]2O)c(=O)[nH]1 [URIDINE_DIPHOSPHATE] | – | – | 0.53 | –
16 | C#CCCOP(=O)(O)OP(=O)(O)OC[C@H]1O[C@@H](n2ccc(=O)[nH]c2=O)[C@H](O)[C@@H]1O | – | 0.48 | 1.52 | –
17 | CCN(CC)CC.COP(=O)(O)OP(=O)(O)OC[C@H]1O[C@@H](n2ccc(=S)[nH]c2=O)[C@H](O)[C@@H]1O | – | – | 10.4 | EC50 (P2Y purinoceptor 14; hek293): Not Active
18 | COP(=O)(O)OP(=O)(O)OC[C@H]1O[C@@H](n2ccc(=O)[nH]c2=O)[C@H](O)[C@@H]1O | > 10 | 2.73 | – | –
19 | O=c1ccn([C@@]23C[C@H]2[C@H](COP(=O)(O)OP(=O)(O)O)[C@@H](O)[C@H]3O)c(=O)[nH]1 | – | – | 0.042 | Activity [3]: inactive
20 | O=c1ccn([C@@H]2O[C@H](COP(=O)(O)CP(=O)(O)O)[C@@H](O)[C@H]2O)c(=O)[nH]1 | – | 0.011 | 0.339 | Ratio EC50 (Homo sapiens): 31
21 | CCOP(=O)(O)OP(=O)(O)OC[C@H]1O[C@@H](n2ccc(=O)[nH]c2=S)[C@H](O)[C@@H]1O | > 10 | 0.039 | – | Ratio EC50 (Homo sapiens): > 250
22 | O=c1ccn([C@@H]2O[C@H](COP(=O)(O)OP(=O)(O)OC3CCCCC3)[C@@H](O)[C@H]2O)c(=O)[nH]1 | > 10 | 5.16 | – | –
23 | O=c1ccn([C@@H]2O[C@H](COP(=O)(O)OP(=O)(O)Oc3ccc([N+](=O)[O-])cc3)[C@@H](O)[C@H]2O)c(=O)[nH]1 | – | 1.49 | 2.76 | –
24 | O=c1ccn([C@@H]2O[C@H](COP(=O)(O)CP(=O)(O)O)[C@@H](O)[C@H]2O)c(=S)[nH]1 | – | 0.00092 | 1.99 | Ratio EC50 (Homo sapiens): 2160
25 | CCCOP(=O)(O)OP(=O)(O)OC[C@H]1O[C@@H](n2ccc(=O)[nH]c2=S)[C@H](O)[C@@H]1O | – | 0.04 | 9.1 | Ratio EC50 (Homo sapiens): 230
26 | N#CCCOP(=O)(O)OP(=O)(O)OC[C@H]1O[C@@H](n2ccc(=O)[nH]c2=O)[C@H](O)[C@@H]1O | > 10 | 7.46 | – | –
27 | O=c1ccn([C@H]2[C@H](O)[C@H](O)[C@@]3(COP(=O)(O)OP(=O)(O)O)C[C@H]23)c(=O)[nH]1 | – | – | – | Activity (P2Y purinoceptor 6 [1]): inactive; Activity [3]: inactive
28 | O=c1ccn([C@@H]2O[C@H](COP(=O)(O)C(F)(F)P(=O)(O)O)[C@@H](O)[C@H]2O)c(=O)[nH]1 | – | 0.063 | – | EC50 (P2Y purinoceptor 6 [2]; 1321-n1): Not Active
